# Assay results taken from patent publication US4562275A, “Antitumor platinum complexes” (priority 1984, dated 1985).
# Several values for one entry are separate records, joined by “and”; a condition that tells them apart may be missing. Equal entries are not always repeated.
# What was measured:
# [1] = tested on: L1210 leukemia; assay: Antitumor activity vs transplantable L1210 leukemia (ip) in mice; assay type: in vivo, mouse; details: for Max % T/C: dying mice only; for OD (optimum dose): optimum dose from the L1210 test
# Excerpt: The antitumor activities of the complexes provided by the present invention have been determined against L-1210 leukemia in the mouse and, for certain of the complexes, against other mouse tumor systems.
# (§1) Results of antitumor testing against the transplantable mouse tumors L1210 leukemia, cisplatin-resistant L1210 leukemia, B16 melanoma, Madison 109 lung carcinoma and colon 26 carcinoma are shown below in Tables 1 and 2.
# In Table 1 are shown the maximum % T/C values obtained for each platinum compound versus L1210 leukemia using both single and qd 1→5 dosing.
# (§2) The methods used to evaluate the platinum complexes for antitumor activity and toxicity in animals are summarized below. These methods have been published elsewhere in more detail (Rose, et al. Cancer Treat. Rep. 66: 135, 1982; Florczyk, et al, Cancer Treat. Rep. 66: 187, 1982).
# (§3) The parent line of L1210 leukemia (L1210) was maintained in DBA/2 mice by ip transplantation of 10^5 cells at weekly intervals. […] B16 malenoma (B16) was maintained by sc transplant in C57BL/6 mice every two weeks. Madison 109 lung carcinoma (M109) and colon 26 carcinoma (C26) were maintained by sc transplant in BALB/c mice every two weeks.
# (§4) The level and route of tumor inoculum, host, group size, and drug treatment schedule and route for each tumor type are summarized below in Table 6. Each complex was evaluated initially against L1210 at 4 dose levels per schedule selected on the basis of lethality data provided by the Wadley Institute. In subsequent experiments with the other tumors the complexes were evaluated at a minimum of 3 dose levels selected on the basis of maximum tolerated levels in the L1210 experiments. Cisplatin-treated groups and a saline-treated (or untreated) tumor control group were included in each experiment.
# (§5) The L1210 experiments were terminated on Day 30 whereas the B16, C26 and M109 experiments were terminated on Day 60 (some C26 experiments were terminated on Day 75). Mice alive at the termination day were autopsied and considered cured if no tumor was visible. […] A complex was considered active if it produced a % T/C value ≥125.
# [2] = tested on: L1210/CDDP (cisplatin resistant line of L1210 leukemia); assay: Antitumor activity vs cisplatin-resistant L1210 leukemia (L1210/CDDP) in mice; assay type: in vivo, mouse
# Excerpt: Results of antitumor testing against the transplantable mouse tumors L1210 leukemia, cisplatin-resistant L1210 leukemia, B16 melanoma, Madison 109 lung carcinoma and colon 26 carcinoma are shown below in Tables 1 and 2. […]
# as §2, §3, §4, §5
# [3] = tested on: B16 melanoma; assay: Antitumor activity vs ip B16 melanoma in mice; assay type: in vivo, mouse; design: O.D.: unit not given here; details: for O.D.: ip B16 (3×; 9×); for Max. % T/C: ip B16 (3×; 9×): q4d × 3 or qd 1-9, ip, dying mice only; for Ratio of Max. % T/C Complex/cDDP: ip B16, relative to concomitant cisplatin
# Excerpt: as §2, §3
# The level and route of tumor inoculum, host, group size, and drug treatment schedule and route for each tumor type are summarized below in Table 6. Each complex was evaluated initially against L1210 at 4 dose levels per schedule selected on the basis of lethality data provided by the Wadley Institute.
# as §5
# [4] = tested on: C26 carcinoma; assay: Antitumor activity vs ip C26 (colon 26) carcinoma in mice; assay type: in vivo, mouse; design: O.D.: unit not given here; details: for O.D.: ip C26 (2×; 4×); for Max. % T/C: ip C26 (2×; 4×): q3d × 2 or qd 1-4, ip, dying mice only
# Excerpt: as §1, §2, §3, §4, §5
# 8 q3d^b × 2 or qd 1-4, ip
# [5] = tested on: M109 carcinoma; assay: Antitumor activity vs ip M109 (Madison 109 lung) carcinoma in mice; assay type: in vivo, mouse; design: O.D.: unit not given here; details: for O.D.: ip M109 (2×; 4×); for Max. % T/C: ip M109 (2×; 4×): q3d × 2 or qd 1-4, ip, dying mice only
# Excerpt: as §1, §2, §3, §4, §5
# 8 q3d^a × 2 or qd 1-4, ip
# [6] = tested on: B16 melanoma; assay: Antitumor activity vs B16 melanoma, sc tumor implant with iv drug dosing; assay type: in vivo, mouse
# Excerpt: ^b Sc tumor implant with iv drug dosing.
# as §3, §4, §5
# [7] = tested on: BDF1 mice; assay: Nephrotoxicity: effect on blood urea nitrogen (BUN) in BDF1 mice; details: for BUN↑, Mouse: effect relative to cisplatin
# Protocol: The other compounds were in such short supply that they were tested for effects on BUN values using the optimum dose (O.D.) from the L1210 test for dose selection.
# The toxicity studies were done in male BDF1 mice (25-29 gm) and castrated male Fitch ferrets (1-1.5 kg).
# The complexes that were active against L1210 were evaluated for nephrotoxicity by determining their effects on blood urea nitrogen (BUN) levels in mice. Groups of 40-50 mice/experiment were bled from the retro-orbital plexus and individual BUN values determined by a modified urease method using a Centrifichem System 400. The test complex, or saline for controls, was given at several dose levels (5-10 mice/dose) in single ip injections. The highest dose of the complex usually corresponded to its LD50 value or 1.5 times its optimal single dose in the L1210 experiment. At least two lower doses were included to evaluate dose-related effects. The BUN values were measured 4 and 7 days after dosing. BUN values ≥30 mg% were considered indicative of drug-induced nephrotoxicity.
# [8] = tested on: BDF1 mice; assay: Deaths (D.14) in the BUN test in BDF1 mice; assay type: in vivo, mouse
# [9] = tested on: BDF1 mice; assay: Single-dose ip LD50 in BDF1 mice; assay type: in vivo, mouse; details: 30 days observation
# Protocol: Single-dose ip LD50 values were determined in BDF1 mice for the indicated complexes.
# [10] = Solubility (Table 3); details: medium not given
# [11] = Solubility stated in the preparation examples
# [12] = L1210, Day 1, in intralipid plus ethanol
# [13] = L1210, single dose Day 1, ip, (a), (b) determinations
# [14] = L1210, single dose Day 1, ip, dose giving the Max % T/C, same order
compound,measurement,setting,value
"N[C@@H]1CCCC[C@H]1N.O=C([O-])C(F)(F)C(F)(F)C(F)(F)F.O=C([O-])C(F)(F)C(F)(F)C(F)(F)F.[Pt+2] (relative stereo) [Example 3, bis-heptafluorobutyrato trans(-)-1,2-diaminocyclohexane platinum(II)]",O.D. (optimal dose),[1]; [12],24 mg/kg/inj and 18 mg/kg/inj
same,Max % T/C,[1]; [12],214% and 200%
same,Cures/total,"[1]; L1210, QD 1 → 5, ip",2/6
same,O.D. (optimal dose),"[1]; L1210, QD 1 → 5, ip",3 mg/kg/inj
same,Max % T/C,"[1]; L1210, QD 1 → 5, ip",186%
same,Max % T/C,[1]; [13],157%
same,O.D. (optimal dose),[1]; [14],48 mg/kg/inj
same,OD (optimum dose),[1],24 mg/kg/ip
same,O.D. (optimal dose),"[2]; Day 1, in intralipid plus ethanol",12 mg/kg/inj
same,Max % T/C,"[2]; Day 1, in intralipid plus ethanol, dying mice only",195%
same,O.D.,[3],1
same,Max. % T/C,[3],182%
same,O.D.,[4],16
same,Max. % T/C,[4],119%
same,O.D.,[5],12 and 8
same,Max. % T/C,[5],118% and 103%
same,O.D.,[6],4
same,Max. % T/C,[6]; dying mice only,164%
same,Incidence of BUN > 30 mg %,[7]; 24 mg/kg ip,0/3
same,Incidence of BUN > 30 mg %,[7]; 36 mg/kg ip,0/2
same,"BUN↑, Mouse",[7],0
same,Deaths D.14,[8]; 24 mg/kg ip,2/5
same,Deaths D.14,[8]; 36 mg/kg ip,3/5
"NCC1(N)CCCCCCC1.O=C([O-])CP(=O)([O-])[O-].[H+].[Pt+2] [Example 15, phosphonoacetato 1-aminomethylcyclooctylamine platinum(II)]",O.D. (optimal dose),"[1]; L1210, QD 1 → 5, ip",10 mg/kg/inj
same,Max % T/C,"[1]; L1210, QD 1 → 5, ip",193%
same,Max % T/C,[1]; [13],236%
same,O.D. (optimal dose),[1]; [14],80 mg/kg/inj
same,OD (optimum dose),[1],80 mg/kg/ip
same,O.D.,[3],3
same,Max. % T/C,[3],147%
same,Ratio of Max. % T/C Complex/cDDP,[3],.77
same,LD50,[9],137 mg/kg/ip
same,Incidence of BUN > 30 mg %,[7]; 77 mg/kg ip,0/10
same,Incidence of BUN > 30 mg %,[7]; 103 mg/kg ip,2/10
same,Incidence of BUN > 30 mg %,[7]; 137 mg/kg ip,7/10
same,"BUN↑, Mouse",[7],<
same,Deaths D.14,[8]; 77 mg/kg ip,0/10
same,Deaths D.14,[8]; 103 mg/kg ip,3/10
same,Deaths D.14,[8]; 137 mg/kg ip,9/10
same,Solubility,[10],7000 µg/mL
same,Solubility in water,[11],very water-soluble
"hydroxymethylphosphonato trans(-)-1,2-diaminocyclohexane platinum(II) [Example 12]",O.D. (optimal dose),"[1]; L1210, QD 1 → 5, ip",3 mg/kg/inj
same,Max % T/C,"[1]; L1210, QD 1 → 5, ip",293%
same,Max % T/C,[1]; [13],221% and 275%
same,O.D. (optimal dose),[1]; [14],24 mg/kg/inj and 21 mg/kg/inj
same,OD (optimum dose),[1],24 mg/kg/ip
same,Cures/total,[2]; Day 1,2/6
same,O.D. (optimal dose),[2]; Day 1,14 mg/kg/inj
same,Max % T/C,"[2]; Day 1, dying mice only",340%
same,O.D.,[3],4
same,Max. % T/C,[3],229%
same,Ratio of Max. % T/C Complex/cDDP,[3],1.08
same,O.D.,[4],24
same,Max. % T/C,[4],125%
same,Ratio of Max. % T/C Complex/cDDP,"[4]; ip C26, relative to concomitant cisplatin",.87
same,O.D.,[5],18
same,Max. % T/C,[5],135%
same,Ratio of Max. % T/C Complex/cDDP,"[5]; ip M109, relative to concomitant cisplatin",.95
same,LD50,[9],79 mg/kg/ip
same,Incidence of BUN > 30 mg %,[7]; 44 mg/kg ip,1/6
same,Incidence of BUN > 30 mg %,[7]; 59 mg/kg ip,0/4
same,"BUN↑, Mouse",[7],0
same,Deaths D.14,[8]; 44 mg/kg ip,6/10
same,Deaths D.14,[8]; 59 mg/kg ip,9/10
same,Deaths D.14,[8]; 79 mg/kg ip,10/10
same,Solubility,[10],3000 µg/mL
same,Solubility in methanol,[11]; methanol,soluble
same,Solubility in water,[11],soluble
